{"source": "patent US10441663B2", "about": "“Methods for treating cancer” (Bicycle Therapeutics Limited, priority 2016, dated 2019)", "system": "3LL syngeneic model", "test": "In vivo efficacy of BT1718 alone or in combination with Anti-PD-1 antibody in 3LL syngeneic model (Example 10)", "parameters": "species or system Mus Musculus", "description": "The objective of the research was to evaluate the in vivo anti-tumor efficacy of BT1718 alone or in combination with Anti-PD-1 antibody in the treatment of the subcutaneous 3LL syngeneic model in C57BL/6 mice.\nThe 3LL tumor cells were maintained in vitro as a monolayer culture in medium supplemented with 10% heat inactivated fetal bovine serum at 37° C. in an atmosphere of 5% CO2 in air. The tumor cells were routinely subcultured twice weekly by trypsin-EDTA treatment. The cells growing in an exponential growth phase will be harvested and counted for tumor inoculation.\nEach mouse was inoculated subcutaneously at the right flank with 3LL tumor cells (1×106) in 0.1 ml of PBS for tumor development. The animals were randomized and treatment was started when the average tumor volume reaches approximately 105 mm^3 for the efficacy study. The test article administration and the animal numbers in each group were shown in the experimental design table (Table 52).\nAll the procedures related to animal handling, care and the treatment in the study were performed according to the guidelines of the Association for Assessment and Accreditation of Laboratory Animal Care (AAALAC). At the time of routine monitoring, the animals were daily checked for any effects of tumor growth and treatments on normal behavior such as mobility, food and water consumption (by looking only), body weight gain/loss (body weights were measured every day), eye/hair matting and any other abnormal effect as stated in the protocol. Death and observed clinical signs were recorded on the basis of the numbers of animals within each subset.\nThe major endpoint was to see if the tumor growth could be delayed or mice could be cured. Tumor size was measured three times weekly in two dimensions using a caliper, and the volume was expressed in mm^3 using the formula: V=0.5 a×b2 where a and b are the long and short diameters of the tumor, respectively. The tumor size was then used for calculations of T/C value. The T/C value (in percent) is an indication of antitumor effectiveness; T and C are the mean volumes of the treated and control groups, respectively, on a given day.\nTGI was calculated for each group using the formula: TGI (%)=[1−(Ti−T0)/(Vi−V0)]×100; Ti is the average tumor volume of a treatment group on a given day, T0 is the average tumor volume of the treatment group on the day of treatment start, Vi is the average tumor volume of the vehicle control group on the same day with Ti, and V0 is the average tumor volume of the vehicle group on the day of treatment start.\nSummary statistics, including mean and the standard error of the mean (SEM), are provided for the tumor volume of each group at each time point.\nStatistical analysis of difference in tumor volume among the groups was conducted on the data obtained at the best therapeutic time point after the final dose.\nA one-way ANOVA was performed to compare tumor volume among groups, and when a significant F-statistics (a ratio of treatment variance to the error variance) was obtained, comparisons between groups were carried out with Games-Howell test. All data were analyzed using Prism. P<0.05 was considered to be statistically significant.", "key": {"[1]": {"conditions": "Vehicle, ip, biw + BT1718, 3 mpk, iv, biw, day 14"}, "[2]": {"conditions": "Vehicle, ip, biw + BT1718, 10 mpk, iv, biw, day 14"}}, "note": "*1 amine or outer side, *2 acyl side, *3 side chain or, on linkers, in order; H or OH if unused. Where a SMILES comes first, the peptide text is derived from it. Bridges are numbered along the chain shown (N, C = ends). [ ]: non-standard residue; d: D form. The star is where a group is joined. X1 = COc1cc2cc(c1Cl)N(C)C(=O)C[C@H](OC(=O)[C@H](C)N(C)C(=O)CCSSC(C)CCC(=O)*)[C@]1(C)O[C@H]1[C@H](C)[C@@H]1C[C@@](O)(NC(=O)O1)[C@H](OC)/C=C/C=C(\\C)C2; 1Nal = N[C@@H](Cc1cccc2ccccc12)C(=O)O; TBMB = c1c(C[*:1])cc(C[*:3])cc1C[*:2]; Tle = CC(C)(C)[C@H](N)C(=O)O; βAla = NCCC(=O)O; Sar = CNCC(=O)O", "data": [{"smiles": "COc1cc2cc(c1Cl)N(C)C(=O)C[C@H](OC(=O)[C@H](C)N(C)C(=O)CCSSC(C)CCC(=O)NCCC(=O)N(C)CC(=O)N(C)CC(=O)N(C)CC(=O)N(C)CC(=O)N(C)CC(=O)N(C)CC(=O)N(C)CC(=O)N(C)CC(=O)N(C)CC(=O)N(C)CC(=O)N[C@@H](C)C(=O)N[C@H]1CSCc3cc4cc(c3)CSC[C@H](NC(=O)[C@@H](C)NC(=O)[C@H](Cc3cccc5ccccc35)NC(=O)[C@H](CCC(=O)O)NC(=O)[C@H](CC(N)=O)NC(=O)[C@@H](C)NC1=O)C(=O)N[C@@H](CCC(=O)O)C(=O)N[C@@H](CC(=O)O)C(=O)N[C@@H](Cc1ccccc1)C(=O)N[C@@H](Cc1ccc(O)cc1)C(=O)N[C@@H](CC(=O)O)C(=O)N[C@@H](C(C)(C)C)C(=O)N[C@H](C(N)=O)CSC4)[C@]1(C)O[C@H]1[C@H](C)[C@@H]1C[C@@](O)(NC(=O)O1)[C@H](OC)/C=C/C=C(\\C)C2", "note": "(stereo partly drawn) [BT1718] ({X1-βAla}-[Sar][Sar][Sar][Sar][Sar][Sar][Sar][Sar][Sar][Sar]AC[dA]NE[1Nal][dA]CEDFYD[Tle]C-NH2; linker 12-18-25 via TBMB (inferred))", "values": [{"measurement": "TGI", "setting": "BT1718 3 mg/kg, day 14", "result": 72.9, "unit": "%"}, {"measurement": "Tumor Volume", "setting": "BT1718 3 mg/kg, day 14", "result": 612, "unit": "mm^3"}, {"measurement": "TGI", "setting": "BT1718 10 mg/kg, day 14", "result": 98.1, "unit": "%"}, {"measurement": "Tumor Volume", "setting": "BT1718 10 mg/kg, day 14", "result": 132, "unit": "mm^3"}, {"measurement": "tumor volume trace over time", "setting": "Vehicle, ip, biw + BT1718, 3 mpk, iv, biw, day 0", "result": "96 ± 7", "unit": "mm^3"}, {"measurement": "tumor volume trace over time", "setting": "Vehicle, ip, biw + BT1718, 3 mpk, iv, biw, day 3", "result": "167 ± 29", "unit": "mm^3"}, {"measurement": "tumor volume trace over time", "setting": "Vehicle, ip, biw + BT1718, 3 mpk, iv, biw, day 7", "result": "320 ± 71", "unit": "mm^3"}, {"measurement": "tumor volume trace over time", "setting": "Vehicle, ip, biw + BT1718, 3 mpk, iv, biw, day 10", "result": "396 ± 79", "unit": "mm^3"}, {"measurement": "T/C", "setting": "[1]", "result": 30.6, "unit": "%"}, {"measurement": "TGI", "setting": "[1]", "result": 72.9, "unit": "%"}, {"measurement": "tumor volume trace over time", "setting": "[1]", "result": "612 ± 133", "unit": "mm^3"}, {"measurement": "Tumor Volume", "setting": "Vehicle, ip, biw + BT1718, 3 mpk, iv, biw, day 14, Mean ± SEM", "result": "612 ± 133", "unit": "mm^3"}, {"measurement": "tumor volume trace over time", "setting": "Vehicle, ip, biw + BT1718, 3 mpk, iv, biw, day 17", "result": "968 ± 211", "unit": "mm^3"}, {"measurement": "tumor volume trace over time", "setting": "Vehicle, ip, biw + BT1718, 3 mpk, iv, biw, day 21", "result": "1177 ± 196", "unit": "mm^3"}, {"measurement": "tumor volume trace over time", "setting": "Vehicle, ip, biw + BT1718, 10 mpk, iv, biw, day 0", "result": "96 ± 6", "unit": "mm^3"}, {"measurement": "tumor volume trace over time", "setting": "Vehicle, ip, biw + BT1718, 10 mpk, iv, biw, day 3", "result": "134 ± 17", "unit": "mm^3"}, {"measurement": "tumor volume trace over time", "setting": "Vehicle, ip, biw + BT1718, 10 mpk, iv, biw, day 7", "result": "141 ± 18", "unit": "mm^3"}, {"measurement": "tumor volume trace over time", "setting": "Vehicle, ip, biw + BT1718, 10 mpk, iv, biw, day 10", "result": "128 ± 16", "unit": "mm^3"}, {"measurement": "T/C", "setting": "[2]", "result": 6.6, "unit": "%"}, {"measurement": "TGI", "setting": "[2]", "result": 98.1, "unit": "%"}, {"measurement": "tumor volume trace over time", "setting": "[2]", "result": "132 ± 26", "unit": "mm^3"}, {"measurement": "Tumor Volume", "setting": "Vehicle, ip, biw + BT1718, 10 mpk, iv, biw, day 14, Mean ± SEM", "result": "132 ± 26", "unit": "mm^3"}, {"measurement": "tumor volume trace over time", "setting": "Vehicle, ip, biw + BT1718, 10 mpk, iv, biw, day 17", "result": "129 ± 33", "unit": "mm^3"}, {"measurement": "tumor volume trace over time", "setting": "Vehicle, ip, biw + BT1718, 10 mpk, iv, biw, day 21", "result": "104 ± 41", "unit": "mm^3"}]}]}
